What was measured:
HEK293sieSTAT3(wt) [1] = experiment: drug sensitivity score (DSS), viability CellTiter-Glo (DSS (dimensionless)); higher = more growth inhibition; extreme values may be limits of the assay; details: 72 h; STAT3 variant: wild type
Summary of the method: (§1)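 In 384-well plates with acoustically pre-plated compounds (5 concentrations, 10-fold dilutions), 20 μl of HEK293 cells at 100,000 cells/ml were added; the cells overexpressed wild-type or mutant STAT3 and carried a STAT3-dependent luciferase reporter. Incubation lasted 72 hours at 37°C and 5% CO2 before sequential CellTox Green (485/520 nm) and CellTiter-Glo reads on a PHERAstar FS. After normalisation to negative and positive control wells, Breeze was used to derive a drug sensitivity score from the dose-response curve area.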

HEK293sieSTAT3(Y640F) [2] = experiment: as above; details: 72 h; STAT3 variant: Y640F (constitutively active)
Summary of the method: as §1

HEK293sieSTAT3(wt) [3] = experiment: drug sensitivity score (DSS), cytotoxicity CellTox Green (DSS (dimensionless)); higher = more cytotoxic; extreme values may be limits of the assay; details: 72 h; STAT3 variant: wild type
Summary of the method: as §1

HEK293sieSTAT3(Y640F) [4] = experiment: as above; details: 72 h; STAT3 variant: Y640F (constitutively active)
Summary of the method: as §1

SMILES	drug sensitivity score (HEK293sieSTAT3(wt) [1])	drug sensitivity score (HEK293sieSTAT3(Y640F) [2])	drug sensitivity score (HEK293sieSTAT3(wt) [3])	drug sensitivity score (HEK293sieSTAT3(Y640F) [4])
CCC/C=C/C=C/C(=O)O[C@H]1/C(=C/C(=O)OC)C[C@H]2C[C@H]([C@@H](C)O)OC(=O)C[C@H](O)C[C@@H]3C[C@H](OC(C)=O)C(C)(C)[C@](O)(C[C@@H]4C/C(=C/C(=O)OC)C[C@H](/C=C/C(C)(C)[C@]1(O)O2)O4)O3 [Bryostatin 1] (top concentration tested 100 nM)	0.13	0	0.86	0.65
CCCCc1nc2cc(/C=C/C(=O)NO)ccc2n1CCN(CC)CC [Pracinostat] (top concentration tested 10000 nM)	22	20.7	14.5	9.85
COc1c(OCCCN2CCOCC2)ccc2c1N=C(NC(=O)c1cnc(N)nc1)N1CCN=C21 [Copanlisib] (top concentration tested 1000 nM)	18.3	15.5	0.34	0
CC[C@H](C)C(=O)O[C@H]1C[C@@H](C)C=C2C=C[C@H](C)[C@H](CC[C@@H]3C[C@@H](O)CC(=O)O3)[C@H]21 [Lovastatin] (top concentration tested 10000 nM)	0.12	0	0	0
O=C(/C=C\n1cnc(-c2cc(C(F)(F)F)cc(C(F)(F)F)c2)n1)NNc1ccccn1 [Verdinexor] (top concentration tested 1000 nM)	17.4	15.5	10.5	5.2
O=C1CCC(N2C(=O)c3ccccc3C2=O)C(=O)N1 (configuration not stated) [Thalidomide] (top concentration tested 10000 nM)	2.38	4.79	0	0
O=[N+]([O-])c1ccc2c(c1)S(=O)(=O)C=C2 [Stattic] (top concentration tested 50000 nM)	17.2	17.2	18.9	16.9
CC[C@@H]1C(=O)N(C)c2cnc(Nc3ccc(C(=O)NC4CCN(C)CC4)cc3OC)nc2N1C1CCCC1 [BI 2536] (top concentration tested 1000 nM)	24.7	23.5	20.1	2.98
O=C(O)CC[C@H]1CC[C@@](c2cc(F)ccc2F)(S(=O)(=O)c2ccc(Cl)cc2)CC1 [MK-0752] (top concentration tested 1000 nM)	0	1.59	0	0
N[C@@H](Cc1ccc(N(CCCl)CCCl)cc1)C(=O)O [Melphalan] (top concentration tested 12500 nM)	0	1.69	0	0
C=CC(=O)N1CCC(Oc2cc3c(Nc4ccc(Cl)c(Cl)c4F)ncnc3cc2OC)CC1 [Poziotinib] (top concentration tested 1000 nM)	0	1.53	0	0
CC[C@H](Nc1ncnc2[nH]cnc12)c1nc2cccc(F)c2c(=O)n1-c1ccccc1 [Idelalisib] (top concentration tested 10000 nM)	2.04	1.95	0.23	0
Cc1c(N)nc([C@H](CC(N)=O)NC[C@H](N)C(N)=O)nc1C(=O)N[C@H](C(=O)N[C@H](C)[C@@H](O)[C@H](C)C(=O)N[C@H](C(=O)NCCc1nc(-c2nc(C(=O)NCCC[S+](C)C)cs2)cs1)[C@@H](C)O)[C@@H](OC1OC(CO)C(O)C(O)C1OC1OC(CO)C(O)C(OC(N)=O)C1O)c1cnc[nH]1 (some centres not stated) [Bleomycin] (top concentration tested 10000 nM)	18.8	20.1	5.92	4.25
CO[C@@H](C(=O)N1Cc2[nH]nc(NC(=O)c3ccc(N4CCN(C)CC4)cc3)c2C1)c1ccccc1 [Danusertib] (top concentration tested 10000 nM)	7.14	6.46	11.8	0
O=C(NC1CCNCC1)c1n[nH]cc1NC(=O)c1c(Cl)cccc1Cl [AT7519] (top concentration tested 10000 nM)	18.6	16.7	12.2	4.11
CCc1cc2c(cc1N1CCC(N3CCOCC3)CC1)C(C)(C)c1[nH]c3cc(C#N)ccc3c1C2=O [Alectinib] (top concentration tested 1000 nM)	4.73	3.02	2.75	0
CC1(C)CCC(CN2CCN(c3ccc(C(=O)NS(=O)(=O)c4ccc(NCC5CCOCC5)c([N+](=O)[O-])c4)c(Oc4cnc5[nH]ccc5c4)c3)CC2)=C(c2ccc(Cl)cc2)C1 [Venetoclax] (top concentration tested 1000 nM)	0	0	0	0
CN(C)C(=O)c1cc2cnc(Nc3ccc(N4CCNCC4)cn3)nc2n1C1CCCC1 [Ribociclib] (top concentration tested 10000 nM)	5.65	4.33	2.66	0.06
N[C@@H]1CCCN(c2c(/C=C3\SC(=O)NC3=O)cccc2-c2ccccc2)C1 [AZD1208] (top concentration tested 10000 nM)	0	0	0	0
O=C(CCCCCCC(=O)Nc1ccccc1)NO [Vorinostat] (top concentration tested 10000 nM)	9.87	10.6	4.68	2.86
Cc1cc2c(F)c(Oc3ncnn4cc(OC[C@@H](C)O)c(C)c34)ccc2[nH]1 [Brivanib] (top concentration tested 1000 nM)	0	0.26	0	0
COc1ccc2c(OCc3nnc4ccc(-c5ccccc5)nn34)ccnc2c1 [AMG-208] (top concentration tested 2500 nM)	0.59	1.58	0.89	0.89

SMILES	drug sensitivity score (HEK293sieSTAT3(wt) [1])	drug sensitivity score (HEK293sieSTAT3(Y640F) [2])	drug sensitivity score (HEK293sieSTAT3(wt) [3])	drug sensitivity score (HEK293sieSTAT3(Y640F) [4])
COC[C@H](NC(=O)c1cnc(C)s1)C(=O)N[C@@H](COC)C(=O)N[C@@H](Cc1ccccc1)C(=O)[C@@]1(C)CO1 [Oprozomib] (top concentration tested 2500 nM)	28.8	23.6	28.3	21.5
CN1CC[C@@H](NC(=O)Nc2ccc(C#N)cc2)C[C@@H]1c1nc2ccccc2[nH]1 [Glasdegib] (top concentration tested 1000 nM)	0	3.01	0	0
Nc1ccccc1NC(=O)c1ccc(CNc2nccc(-c3cccnc3)n2)cc1 [Mocetinostat] (top concentration tested 10000 nM)	13.1	11.5	6.57	2.68
Cn1cnc2c(F)c(Nc3ccc(Br)cc3Cl)c(C(=O)NOCCO)cc21 [Selumetinib] (top concentration tested 10000 nM)	0.99	1.4	0	0.68
CCCCNc1ncc(C(=O)NCc2ccc(-n3ccnc3)cc2)c(NC2CCC(O)CC2)n1 (configuration not stated) [UNC2881] (top concentration tested 2500 nM)	4.52	5.94	3.59	0
O=P1(NCCCl)OCCCN1CCCl (configuration not stated) [Ifosfamide] (top concentration tested 10000 nM)	0	0	0	0
c1cc(CN2CCCNCCNCCCNCC2)ccc1CN1CCCNCCNCCCNCC1 [Plerixafor] (top concentration tested 10000 nM)	0	0	0.25	0
CCOC(=O)CCNc1cc(N2CCc3ccccc3CC2)nc(-c2ccccn2)n1 [GSK-J4] (top concentration tested 100000 nM)	19.4	18.8	10.9	10.8
O=NN(CCCl)C(=O)NCCCl [Carmustine] (top concentration tested 10000 nM)	1.45	3.24	0	0
COCC1(CO)C(=O)C2CCN1CC2 (configuration not stated) [APR-246] (top concentration tested 10000 nM)	1.99	0	0	0
CCNC(=O)c1noc(-c2cc(C(C)C)c(O)cc2O)c1-c1ccc(CN2CCOCC2)cc1 [Luminespib] (top concentration tested 1000 nM)	27.8	23.7	15.9	7.6
Cc1nn(C)c(COc2ccc(N3CCN(S(=O)(=O)N(C)C)CC3)cc2)c1-c1cccc2c(CCCOc3cccc4ccccc34)c(C(=O)O)n(CCN3CCOCC3)c12 (top concentration tested 50000 nM)	5.26	9.56	7.01	7.51
CS(=O)(=O)c1ccc(-c2cnc(N)c(C(=O)Nc3ccccc3)n2)cc1 [VE-821] (top concentration tested 10000 nM)	2.94	2.27	0	0
C[C@]12CC[C@H](O)CC1=CC[C@@H]1[C@@H]2CC[C@]2(C)C(c3cccnc3)=CC[C@@H]12 [Abiraterone] (top concentration tested 5000 nM)	1.01	2.65	0	0
O=C1NC(=O)[C@@H](c2cn3c4c(cccc24)CCC3)[C@@H]1c1c[nH]c2ccccc12 [Tivantinib] (top concentration tested 1000 nM)	2.4	2.71	0.63	0
COc1cc(C(=O)NC2CCN(C)CC2)c(F)cc1Nc1ncc2c(n1)N(C1CCCC1)CC(F)(F)C(=O)N2C [TAK-960] (top concentration tested 2500 nM)	0	0	0	0.89
Oc1c2ccccc2c2c3c(cccc13)N=N2 (top concentration tested 100000 nM)	6.18	7.42	2.91	0.97
COc1cc(Br)c(Nc2nc(-c3c(C)nc4ncccn34)cs2)c(Br)c1 [PTC-209] (top concentration tested 10000 nM)	15.7	16	2.2	0.1
C1=N/C2=N/c3ccc(OCCN4CCCC4)c(c3)COC/C=C/COCc3cccc(c3)C(=C1)N2 [Pacritinib] (top concentration tested 10000 nM)	11.1	12.1	10.8	6.22
c1ccc([C@H]2CN3CCSC3=N2)cc1 [Levamisole] (top concentration tested 10000 nM)	0	0	0	0
C[C@]12CC[C@@H]3c4ccc(O)cc4C[C@@H](CCCCCCCCC[S+]([O-])CCCC(F)(F)C(F)(F)F)[C@H]3[C@@H]1CC[C@@H]2O (some centres not stated) [Fulvestrant] (top concentration tested 1000 nM)	1.8	1.69	0.46	0

From the supplement of paper PMC7108870
